The results in this text go back to patent publication US20260297080A1, “BICYCLIC COMPOUNDS AS CDK INHIBITORS” (BeOne Medicines I GmbH, priority 2022, published 2026).

One assay deals with CDK2/Cyclin E1 (Homo sapiens, UniProt P24941). In words: CDK2/Cyclin E1 Biochemical Assay (TR-FRET), 1 mM ATP. Conditions: 0.15 μM Rb (Ser780)-biotin substrate, pH7.0, 60 min preincubation, 90 min reaction, room temperature. In a few lines:
(§1)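 TR-FRET kinase reaction with 1 mM ATP and 0.15 μM Rb (Ser780)-biotin substrate in pH 7.0 HEPES buffer; enzyme preincubated 60 min with compound (0-10 μM), then reacted 90 min at room temperature. Phospho-Rb detected by Eu-anti-pRb/streptavidin-XL665 665/620 nm ratio; IC50 from four-parameter logistic fit.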

Another assay has as its target CDK1/Cyclin B1 (Homo sapiens, UniProt P06493). In words: CDK1/Cyclin B1 Biochemical Assay (TR-FRET), 1 mM ATP. Conditions: 0.15 μM Rb (Ser780)-biotin substrate, pH7.0, 60 min preincubation, 90 min reaction, room temperature. In a few lines:
as §1
(In general: TR-FRET usually uses a lanthanide donor and a delayed reading to cut background.)

The IC50 is the midpoint of a concentration-inhibition curve. The low end stands for greater potency, the high end for weaker potency.

Sequence of CDK1/Cyclin B1 (P06493 whole entry): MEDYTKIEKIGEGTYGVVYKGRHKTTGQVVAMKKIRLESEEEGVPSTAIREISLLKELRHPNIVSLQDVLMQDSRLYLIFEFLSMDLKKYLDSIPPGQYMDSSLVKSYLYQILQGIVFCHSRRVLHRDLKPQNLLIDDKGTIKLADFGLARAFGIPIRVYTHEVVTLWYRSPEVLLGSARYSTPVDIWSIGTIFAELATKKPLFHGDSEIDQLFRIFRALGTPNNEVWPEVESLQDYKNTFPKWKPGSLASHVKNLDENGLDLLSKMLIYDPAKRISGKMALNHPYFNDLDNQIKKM
Sequence of CDK1/Cyclin B1 (P14635 whole entry partner): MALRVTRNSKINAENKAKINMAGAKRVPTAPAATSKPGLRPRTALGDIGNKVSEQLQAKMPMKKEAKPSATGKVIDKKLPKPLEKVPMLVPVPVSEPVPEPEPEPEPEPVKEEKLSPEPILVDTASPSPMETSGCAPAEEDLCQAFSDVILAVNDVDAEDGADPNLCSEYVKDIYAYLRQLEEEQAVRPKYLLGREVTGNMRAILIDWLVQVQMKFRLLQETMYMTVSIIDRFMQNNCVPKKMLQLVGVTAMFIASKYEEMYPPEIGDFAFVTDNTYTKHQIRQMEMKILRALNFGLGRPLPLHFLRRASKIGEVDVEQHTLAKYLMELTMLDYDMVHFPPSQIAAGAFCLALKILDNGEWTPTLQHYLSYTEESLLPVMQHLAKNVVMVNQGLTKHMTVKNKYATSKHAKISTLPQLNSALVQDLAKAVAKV

As for `CCCNC(=O)O[C@H]1CC[C@@H](c2cc(Nc3ccc4c(c3F)CS(=O)(=O)N4CC(C)(C)O)n[nH]2)C1` [Example 433b], the IC50 stood at 18 nM at CDK2/Cyclin E1 and 1450 nM against CDK1/Cyclin B1.

Take `CC(C)(C)NC(=O)O[C@H]1CC[C@@H](c2cc(Nc3ccc4c(c3F)CCS(=O)(=O)N4)n[nH]2)C1` [Example 463, (1S,3R)-3-(3-((5-fluoro-2,2-dioxido-3,4-dihydro-1H-benzo[c][1,2]thiazin-6-yl)amino)-1H-pyrazol-5-yl)cyclopentyl tert-butylcarbamate]: the IC50 on CDK2/Cyclin E1 came out at 0.4 nM; against CDK1/Cyclin B1, 140 nM.

For `CC(C)(C)NC(=O)O[C@@H]1CC[C@H](c2cc(Nc3ccc4c(c3F)CCS(=O)(=O)N4)n[nH]2)C1` [Example 464, (1R,3S)-3-(3-((5-fluoro-2,2-dioxido-3,4-dihydro-1H-benzo[c][1,2]thiazin-6-yl)amino)-1H-pyrazol-5-yl)cyclopentyl tert-butylcarbamate], the results for the IC50 against CDK2/Cyclin E1 and on CDK1/Cyclin B1 were 0.8 nM and 325 nM, respectively.
